Laboratory results taken from patent US9725459B2, “3-oxo-tetrahydro-furo[3,2-B]pyrrol-4(5H)-yl) derivatives I” (GRÜNENTHAL GMBH, priority 2014, dated 2017).

Experiments:
Type in all cases: biochemical
human cathepsin S (CatS) = human cathepsin S (CatS) (Homo sapiens (Human), UniProt P25774); test: CatS functional enzyme assay; conditions: for Selectivity Ki(hCatS)/Ki(hCatK): ratio Ki(hCatS)/Ki(hCatK); for Ki: recombinant human CatS, substrate Z-VVR-AMC 5 μM, pH 6.5, Ki by Cheng Prusoff equation, read-out: hCatS, Ki
Summary of the method: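 Recombinant human enzymes were incubated 10 min at RT with AMC substrate: CatS 0.0007 mU/well with Z-VVR-AMC 5 µM; CatK 0.00175 mU/well with Z-FR-AMC 40 µM; CatL 0.000874 mU/well with Z-VVR-AMC 40 µM. Fluorescence gave IC50, converted to Ki by Cheng-Prusoff.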

human cathepsin L (CatL) = human cathepsin L (CatL) (Homo sapiens (Human), UniProt P07711); test: CatL functional enzyme assay; conditions: read-out: hCatL, inhibition [%] at 31.6 μM
human cathepsin K (CatK) = human cathepsin K (CatK) (Homo sapiens (Human), UniProt P43235); test: CatK functional enzyme assay; conditions: recombinant human CatK, substrate Z-FR-AMC 40 μM, pH 5.5; Ki by Cheng Prusoff equation; read-out: hCatK, Ki
Summary of the method: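 Recombinant human enzymes in 50 mM NaOAc, 10 mM EDTA, 1 mM DTT, 0.01% Triton X-100, pH 5.5, 10 min at RT. CatK: 0.00175 mU/well with 40 μM Z-FR-AMC; CatL: 0.000874 mU/well with 40 μM Z-VVR-AMC. AMC fluorescence read; IC50 converted to Ki via Cheng–Prusoff.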

Chain of human cathepsin S (CatS) (P25774 115-331): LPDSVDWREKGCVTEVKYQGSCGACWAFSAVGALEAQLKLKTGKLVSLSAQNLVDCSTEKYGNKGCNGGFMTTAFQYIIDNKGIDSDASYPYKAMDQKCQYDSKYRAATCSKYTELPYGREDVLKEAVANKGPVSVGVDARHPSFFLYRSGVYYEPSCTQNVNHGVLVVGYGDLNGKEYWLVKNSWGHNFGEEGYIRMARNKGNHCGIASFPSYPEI
Chain of human cathepsin K (CatK) (P43235 115-329): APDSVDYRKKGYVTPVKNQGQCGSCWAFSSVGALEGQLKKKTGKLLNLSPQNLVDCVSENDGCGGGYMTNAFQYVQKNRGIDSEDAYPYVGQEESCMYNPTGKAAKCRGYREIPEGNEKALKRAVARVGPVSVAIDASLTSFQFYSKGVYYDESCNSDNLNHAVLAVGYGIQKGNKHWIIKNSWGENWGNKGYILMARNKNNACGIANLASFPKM
Chain of human cathepsin L (CatL) (P07711 114-333): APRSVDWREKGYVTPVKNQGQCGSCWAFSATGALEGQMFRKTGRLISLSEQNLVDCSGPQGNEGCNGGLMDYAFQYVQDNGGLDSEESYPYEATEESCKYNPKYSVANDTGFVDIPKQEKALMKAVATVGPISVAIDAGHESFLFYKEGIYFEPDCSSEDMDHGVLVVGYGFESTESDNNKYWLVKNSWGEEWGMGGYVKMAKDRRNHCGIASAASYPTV

O=C(N[C@H](C(=O)N1C[C@H](Cl)[C@H]2OCC(=O)[C@H]21)C1CCCCC1)c1cc(F)c(-c2cccnn2)s1 [Example 54, N-((S)-2-((3aS,6S,6aS)-6-chloro-3-oxotetrahydro-2H-furo[3,2-b]pyrrol-4(5H)-yl)-1-cyclohexyl-2-oxoethyl)-4-fluoro-5-(pyridazin-3-yl)thiophene-2-carboxamide]
Selectivity Ki(hCatS)/Ki(hCatK) (human cathepsin S (CatS)): 25.1
Ki (human cathepsin S (CatS)): 528 nM
inhibition at 31.6 µM (human cathepsin L (CatL)): 27%
Ki (human cathepsin K (CatK)): 21 nM

O=C(N[C@H](C(=O)N1C[C@H](Cl)[C@H]2OCC(=O)[C@H]21)C1CCCCC1)c1ccc(-c2cnc(C3CC3)nc2)s1 [Example 55, N-((S)-2-((3aS,6S,6aS)-6-chloro-3-oxotetrahydro-2H-furo[3,2-b]pyrrol-4(5H)-yl)-1-cyclohexyl-2-oxoethyl)-5-(2-cyclopropylpyrimidin-5-yl)thiophene-2-carboxamide]
Selectivity Ki(hCatS)/Ki(hCatK) (human cathepsin S (CatS)): 2.4
Ki (human cathepsin S (CatS)): 70 nM
inhibition at 31.6 µM (human cathepsin L (CatL)): 13%
Ki (human cathepsin K (CatK)): 29 nM

COc1cc(-c2ccc(C(=O)N[C@H](C(=O)N3C[C@H](Cl)[C@H]4OCC(=O)[C@H]43)C3CCCCC3)s2)ccn1 [Example 56, N-((S)-2-((3aS,6S,6aS)-6-chloro-3-oxotetrahydro-2H-furo[3,2-b]pyrrol-4(5H)-yl)-1-cyclohexyl-2-oxoethyl)-5-(2-methoxypyridin-4-yl)thiophene-2-carboxamide]
Selectivity Ki(hCatS)/Ki(hCatK) (human cathepsin S (CatS)): 16.6
Ki (human cathepsin S (CatS)): 92 nM
inhibition at 31.6 µM (human cathepsin L (CatL)): 20%
Ki (human cathepsin K (CatK)): 6 nM

O=C(N[C@H](C(=O)N1C[C@H](Cl)[C@H]2OCC(=O)[C@H]21)C1CCCCC1)c1ncc(-c2cnc(C3CC3)nc2)s1 [Example 57, N-((S)-2-((3aS,6S,6aS)-6-chloro-3-oxotetrahydro-2H-furo[3,2-b]pyrrol-4(5H)-yl)-1-cyclohexyl-2-oxoethyl)-5-(2-cyclopropylpyrimidin-5-yl)thiazole-2-carboxamide]
Selectivity Ki(hCatS)/Ki(hCatK) (human cathepsin S (CatS)): 3.6
Ki (human cathepsin S (CatS)): 150 nM
inhibition at 31.6 µM (human cathepsin L (CatL)): 23%
Ki (human cathepsin K (CatK)): 42 nM

Cc1nnccc1-c1ccc(C(=O)N[C@H](C(=O)N2C[C@H](Cl)[C@H]3OCC(=O)[C@H]32)C2CCCCC2)s1 [Example 58, N-((S)-2-((3aS,6S,6aS)-6-chloro-3-oxotetrahydro-2H-furo[3,2-b]pyrrol-4(5H)-yl)-1-cyclohexyl-2-oxoethyl)-5-(3-methylpyridazin-4-yl)thiophene-2-carboxamide]
Selectivity Ki(hCatS)/Ki(hCatK) (human cathepsin S (CatS)): 1.5
Ki (human cathepsin S (CatS)): 51 nM
inhibition at 31.6 µM (human cathepsin L (CatL)): 21%
Ki (human cathepsin K (CatK)): 34 nM

O=C(N[C@H](C(=O)N1C[C@H](Cl)[C@H]2OCC(=O)[C@H]21)C1CCCCC1)c1sc(-c2cccnn2)cc1F [Example 59, N-((S)-2-((3aS,6S,6aS)-6-chloro-3-oxotetrahydro-2H-furo[3,2-b]pyrrol-4(5H)-yl)-1-cyclohexyl-2-oxoethyl)-3-fluoro-5-(pyridazin-3-yl)thiophene-2-carboxamide]
Selectivity Ki(hCatS)/Ki(hCatK) (human cathepsin S (CatS)): 6.2
Ki (human cathepsin S (CatS)): 726 nM
inhibition at 31.6 µM (human cathepsin L (CatL)): 0%
Ki (human cathepsin K (CatK)): 118 nM

O=C(N[C@H](C(=O)N1C[C@H](Cl)[C@H]2OCC(=O)[C@H]21)C1CCCCC1)c1sc(-c2ccnnc2)cc1F [Example 60, N-((S)-2-((3aS,6S,6aS)-6-chloro-3-oxotetrahydro-2H-furo[3,2-b]pyrrol-4(5H)-yl)-1-cyclohexyl-2-oxoethyl)-3-fluoro-5-(pyridazin-4-yl)thiophene-2-carboxamide]
Selectivity Ki(hCatS)/Ki(hCatK) (human cathepsin S (CatS)): 2.3
Ki (human cathepsin S (CatS)): 238 nM
inhibition at 31.6 µM (human cathepsin L (CatL)): 11%
Ki (human cathepsin K (CatK)): 104 nM

O=C(N[C@H](C(=O)N1C[C@H](Cl)[C@H]2OCC(=O)[C@H]21)C1CCCCC1)c1ccc(-c2cnc(C(F)(F)F)nc2)s1 [Example 61, N-((S)-2-((3aS,6S,6aS)-6-chloro-3-oxotetrahydro-2H-furo[3,2-b]pyrrol-4(5H)-yl)-1-cyclohexyl-2-oxoethyl)-5-(2-(trifluoromethyl)pyrimidin-5-yl)thiophene-2-carboxamide]
Selectivity Ki(hCatS)/Ki(hCatK) (human cathepsin S (CatS)): 4.0
Ki (human cathepsin S (CatS)): 302 nM
inhibition at 31.6 µM (human cathepsin L (CatL)): 0%
Ki (human cathepsin K (CatK)): 76 nM

O=C(N[C@H](C(=O)N1C[C@H](Cl)[C@H]2OCC(=O)[C@H]21)C1CCCCC1)c1ccc(-c2ccc(C(F)(F)F)nc2)s1 [Example 62, N-((S)-2-((3aS,6S,6aS)-6-chloro-3-oxotetrahydro-2H-furo[3,2-b]pyrrol-4(5H)-yl)-1-cyclohexyl-2-oxoethyl)-5-(6-(trifluoromethyl)pyridin-3-yl)thiophene-2-carboxamide]
Selectivity Ki(hCatS)/Ki(hCatK) (human cathepsin S (CatS)): 10.0
Ki (human cathepsin S (CatS)): 580 nM
inhibition at 31.6 µM (human cathepsin L (CatL)): 25%
Ki (human cathepsin K (CatK)): 58 nM

O=C(N[C@H](C(=O)N1C[C@H](Cl)[C@H]2OCC(=O)[C@H]21)C1CCCCC1)c1ccc(-c2ccc(C3CC3)nc2)s1 [Example 63, N-((S)-2-((3aS,6S,6aS)-6-chloro-3-oxotetrahydro-2H-furo[3,2-b]pyrrol-4(5H)-yl)-1-cyclohexyl-2-oxoethyl)-5-(6-cyclopropylpyridin-3-yl)thiophene-2-carboxamide]
Selectivity Ki(hCatS)/Ki(hCatK) (human cathepsin S (CatS)): 27.6
Ki (human cathepsin S (CatS)): 525 nM
inhibition at 31.6 µM (human cathepsin L (CatL)): 1%
Ki (human cathepsin K (CatK)): 19 nM

O=C(N[C@H](C(=O)N1C[C@H](Cl)[C@H]2OCC(=O)[C@H]21)C1CCCCC1)c1ncc(-c2ccc(C3CC3)nc2)s1 [Example 64, N-((S)-2-((3aS,6S,6aS)-6-chloro-3-oxotetrahydro-2H-furo[3,2-b]pyrrol-4(5H)-yl)-1-cyclohexyl-2-oxoethyl)-5-(6-cyclopropylpyridin-3-yl)thiazole-2-carboxamide]
Selectivity Ki(hCatS)/Ki(hCatK) (human cathepsin S (CatS)): 21.3
Ki (human cathepsin S (CatS)): 616 nM
inhibition at 31.6 µM (human cathepsin L (CatL)): 5%
Ki (human cathepsin K (CatK)): 29 nM

O=C(N[C@H](C(=O)N1C[C@H](Cl)[C@H]2OCC(=O)[C@H]21)C1CCCCC1)c1sc(-c2cccnc2)cc1F [Example 65, N-((S)-2-((3aS,6S,6aS)-6-chloro-3-oxotetrahydro-2H-furo[3,2-b]pyrrol-4(5H)-yl)-1-cyclohexyl-2-oxoethyl)-3-fluoro-5-(pyridin-3-yl)thiophene-2-carboxamide]
Selectivity Ki(hCatS)/Ki(hCatK) (human cathepsin S (CatS)): 1.2
Ki (human cathepsin S (CatS)): 646 nM
inhibition at 31.6 µM (human cathepsin L (CatL)): 5%
Ki (human cathepsin K (CatK)): 551 nM

O=C(N[C@H](C(=O)N1C[C@H](Cl)[C@H]2OCC(=O)[C@H]21)C1CCCCC1)c1ccc(-c2ccnc(C3CC3)c2)s1 [Example 66, N-((S)-2-((3aS,6S,6aS)-6-chloro-3-oxotetrahydro-2H-furo[3,2-b]pyrrol-4(5H)-yl)-1-cyclohexyl-2-oxoethyl)-5-(2-cyclopropylpyridin-4-yl)thiophene-2-carboxamide]
Selectivity Ki(hCatS)/Ki(hCatK) (human cathepsin S (CatS)): 5.0
Ki (human cathepsin S (CatS)): 34 nM
inhibition at 31.6 µM (human cathepsin L (CatL)): 3%
Ki (human cathepsin K (CatK)): 7 nM

O=C(N[C@H](C(=O)N1C[C@H](Cl)[C@H]2OCC(=O)[C@H]21)C1CCCCC1)c1ncc(-c2cnc(C(F)(F)F)nc2)s1 [Example 67, N-((S)-2-((3aS,6S,6aS)-6-chloro-3-oxotetrahydro-2H-furo[3,2-b]pyrrol-4(5H)-yl)-1-cyclohexyl-2-oxoethyl)-5-(2-(trifluoromethyl)pyrimidin-5-yl)thiazole-2-carboxamide]
Selectivity Ki(hCatS)/Ki(hCatK) (human cathepsin S (CatS)): 4.7
Ki (human cathepsin S (CatS)): 198 nM
inhibition at 31.6 µM (human cathepsin L (CatL)): 8%
Ki (human cathepsin K (CatK)): 42 nM

O=C(N[C@H](C(=O)N1C[C@H](Cl)[C@H]2OCC(=O)[C@H]21)C1CCCCC1)c1ncc(-c2ccc(C(F)(F)F)nc2)s1 [Example 68, N-((S)-2-((3aS,6S,6aS)-6-chloro-3-oxotetrahydro-2H-furo[3,2-b]pyrrol-4(5H)-yl)-1-cyclohexyl-2-oxoethyl)-5-(6-(trifluoromethyl)pyridin-3-yl)thiazole-2-carboxamide]
Selectivity Ki(hCatS)/Ki(hCatK) (human cathepsin S (CatS)): 5.9
Ki (human cathepsin S (CatS)): 383 nM
inhibition at 31.6 µM (human cathepsin L (CatL)): 5%
Ki (human cathepsin K (CatK)): 65 nM

Cc1cc(-c2ccc(C(=O)N[C@H](C(=O)N3C[C@H](Cl)[C@H]4OCC(=O)[C@H]43)C3CCCCC3)s2)cnn1 [Example 69, N-((S)-2-((3aS,6S,6aS)-6-chloro-3-oxotetrahydro-2H-furo[3,2-b]pyrrol-4(5H)-yl)-1-cyclohexyl-2-oxoethyl)-5-(6-methylpyridazin-4-yl)thiophene-2-carboxamide]
Selectivity Ki(hCatS)/Ki(hCatK) (human cathepsin S (CatS)): 1.1
Ki (human cathepsin S (CatS)): 9 nM
inhibition at 31.6 µM (human cathepsin L (CatL)): 24%
Ki (human cathepsin K (CatK)): 8 nM

O=C(N[C@H](C(=O)N1C[C@H](Cl)[C@H]2OCC(=O)[C@H]21)C1CCCCC1)c1ccc(-c2ccc[n+]([O-])c2)s1 [Example 70, 3-(5-(((S)-2-((3aS,6S,6aS)-6-chloro-3-oxotetrahydro-2H-furo[3,2-b]pyrrol-4(5H)-yl)-1-cyclohexyl-2-oxoethyl)carbamoyl)thiophen-2-yl)pyridine 1-oxide]
Selectivity Ki(hCatS)/Ki(hCatK) (human cathepsin S (CatS)): 1.5
Ki (human cathepsin S (CatS)): 27 nM
inhibition at 31.6 µM (human cathepsin L (CatL)): 41%
Ki (human cathepsin K (CatK)): 19 nM

COc1cc(-c2ccc(C(=O)N[C@H](C(=O)N3C[C@H](Cl)[C@H]4OCC(=O)[C@H]43)C3CCCCC3)s2)cnn1 [Example 71, N-((S)-2-((3aS,6S,6aS)-6-chloro-3-oxotetrahydro-2H-furo[3,2-b]pyrrol-4(5H)-yl)-1-cyclohexyl-2-oxoethyl)-5-(6-methoxypyridazin-4-yl)thiophene-2-carboxamide]
Selectivity Ki(hCatS)/Ki(hCatK) (human cathepsin S (CatS)): 3.0
Ki (human cathepsin S (CatS)): 23 nM
inhibition at 31.6 µM (human cathepsin L (CatL)): 32%
Ki (human cathepsin K (CatK)): 8 nM
